Consider 98 compounds from ChEMBL document CHEMBL3507680, “University of Dundee, Gates Library screen for HepG2 cell viability”.

The data set in a line: Human HepG2 cell viability assay in 384 well format. Format: toxicity, cell-based. Further details: dose 125 nL, time 70.5 hour; cytotoxicity at 70.5 h: concentration not given beside the values. As to conditions: HepG2 cells, read-out: Inhibition.

Take `Cc1n[nH]c2c1C(c1ccncc1)SCC(=O)N2` (stereo not drawn): the cytotoxicity at 70.5 h is 19.3%.
Under `Cc1nn(-c2ccccn2)c2c1C(c1cnn(C)c1)SCC(=O)N2` (stereo not drawn) stands -27.3%; under `COC(=O)c1ccc(C2SCC(=O)Nc3c2cnn3C(C)(C)C)cc1` (stereo not drawn), -13.2%; under `CC(C)(C)n1ncc2c1NC(=O)CC2c1cccs1` (stereo not drawn), -6.21%.
For the compound `CCn1cc(-c2nn3c(C(C)C)nnc3s2)c(C)n1`, the cytotoxicity at 70.5 h was -14.2%.
With `Cc1nn(C2CCS(=O)(=O)C2)c(O)c1Cc1ccccc1Cl` (stereo not drawn), the cytotoxicity at 70.5 h is -18.5%.
In the case of `O=c1c(NCCO)c(N2CCN(c3ccccc3)CC2)c1=O` it was -4.94%; in that of `CC(C)CNC(=O)CNc1c(NCc2ccccn2)c(=O)c1=O`, 2.45%.
On to `Cc1nn(C2CCS(=O)(=O)C2)c(O)c1Cc1ccccc1` (stereo not drawn), for which the cytotoxicity at 70.5 h was -16.5%.
Regarding `Cc1nn(C2CCS(=O)(=O)C2)c(O)c1CCc1ccccc1` (stereo not drawn), the cytotoxicity at 70.5 h is -8.16%.
In the case of `COc1c[nH]c(C(=O)Nc2nc(C)cs2)cc1=O` it was -5.81%; in that of `Cc1cc(NC(=O)C(C#N)Cc2cnn(C)c2C)no1` (stereo not drawn), -13.8%; in that of `O=c1c(NCCNCCO)c(N2CCN(c3ccc(F)cc3)CC2)c1=O`, -7.08%.
Under `COc1cccc2c1ccn2CCC(=O)Nc1c2c(nn1C)CSC2` stands -11.9%.
In the case of `CC(C)C1Nc2ccccc2C(=O)N1CC(=O)Nc1nc2c(s1)CCC2` (stereo not drawn) it was -15.3%.
`Cc1nn(C2CCS(=O)(=O)C2)c(O)c1Cc1cccc(Cl)c1` (stereo not drawn): the cytotoxicity at 70.5 h was -17.9%.
As to `CC(C)NC(=O)Nc1ccc2c(c1)ncn2CC(=O)NCCN(C)C`, the cytotoxicity at 70.5 h was -12.7%.
On to `O=c1c(NCc2ccncc2)c(NCC(O)CN2CCOCC2)c1=O` (stereo not drawn), for which the cytotoxicity at 70.5 h is -17.9%.
Under `CN(C)CCNC(=O)Cn1cnc2cc(NC(=O)C3CC3)ccc21` stands -10.6%; under `CC(C)(CO)Nc1c(NCc2ccncc2)c(=O)c1=O`, -9.44%.
Under `Cc1cccc2c1ccn2CCC(=O)Nc1c2c(nn1C)CSC2` stands -7.62%; under `CC1CC(=O)c2cc(C(=O)N3CCN(C)CC3)c(=O)[nH]c2C1` (stereo not drawn), -5.53%; under `O=c1c(NCCNCCO)c(N2CCN(c3ccccc3)CC2)c1=O`, -6.86%.
Regarding `CC(C)(CO)Nc1c(NCc2ccccn2)c(=O)c1=O`, the cytotoxicity at 70.5 h is -8.21%.
As to `CC(C)CC(=O)Nc1ccc2c(c1)ncn2CC(=O)NCCN(C)C`, the cytotoxicity at 70.5 h is -6.17%.
Consider `CC(C)c1nnc(NC(=O)CN2C(=O)c3ccccc3NC2C(C)C)s1` (stereo not drawn), for which the cytotoxicity at 70.5 h is -13%.
For `COc1cc(OC)cc(-c2noc(CC(N)c3ccccc3)n2)c1` (stereo not drawn), the cytotoxicity at 70.5 h is -5.26%.
Consider `COc1c[nH]c(C(=O)Nc2nc(C(C)(C)C)cs2)cc1=O`, for which the cytotoxicity at 70.5 h is -0.552%.
`CC(C)CNC(=O)c1cccc(Oc2ccc3nncn3n2)c1`: the cytotoxicity at 70.5 h was -9.71%.
In the case of `Cn1ccc2cc(C(=O)NC3CCOC(C)(C)C3)ccc21` (stereo not drawn) it was 7.49%.
Under `COc1cc(C2SC(C)=Nc3c2c(=O)[nH]n3C2CCCC2)ccc1O` (stereo not drawn) stands -9.1%; under `Cc1cc(N2CCCCC2)nc(N(CCO)CCO)c1C#N`, -8.15%; under `Cc1cc(NCc2ccccc2)nc2[nH]nc(N)c12`, -12.7%.
As to `O=C(Cn1nc2c(cc1=O)CSCC2)N[C@@H](Cc1ccccc1)C(=O)O`, the cytotoxicity at 70.5 h is -5.32%.
In the case of `COCCn1ccc(=O)c(OCC(=O)Nc2ccc(OC)cc2)c1C` it was -12%; in that of `Cn1[nH]c(CNc2cccc(Cl)c2)nc1=O`, -0.326%.
Under `Cc1cc(N2CCOCC2)nc(N(C)CCO)c1C#N` stands -5.45%.
Take `COc1ccc(-c2csc3c2c(N)nc(=O)n3CC(N)=O)cc1`: the cytotoxicity at 70.5 h is -14.6%.
Under `O=C1CC(c2ccsc2)c2cnn(C3CCCC3)c2N1` (stereo not drawn) stands -9.93%; under `CCOC(=O)Cn1c(=O)nc(N)c2c(-c3ccc(OC)cc3)csc21`, -12.9%.
Under `CN(C)S(=O)(=O)c1ccc(-c2nc(C#N)c(NC3CCCCC3)o2)o1` stands -9.49%; under `O=C(Cn1ncc2c(c1=O)CCCCC2)Nc1cccc2[nH]ccc12`, 3.91%.
In the case of `Cn1cc(NC(=O)CNC(=O)N2CCN(c3cccc(Cl)c3)CC2)cn1`, the cytotoxicity at 70.5 h is -4.74%.
On to `CC1=Nc2c(c(=O)[nH]n2C2CCCCC2)C(c2cccnc2)S1` (stereo not drawn), for which the cytotoxicity at 70.5 h was -12%.
In the case of `CC1=Nc2c(c(=O)[nH]n2C(C)C)C(c2ccc3c(c2)OCCO3)S1` (stereo not drawn) it was 7.71%; in that of `C=C(C)CN1CCN(CCC(=O)Nc2ccccc2C(N)=O)CC1`, -10.8%.
In the case of `Cc1nnc(NC(=O)CCc2c(C)nn3cnnc3c2C)s1` it was -7.03%.
In the case of `O=C(NCCc1c[nH]c2ccc(F)cc12)C1(n2cnnn2)CCCCC1` it was -22.2%; in that of `O=C(Cn1ncc2c(c1=O)CCCC2)Nc1cccc2[nH]ccc12`, 6.81%.
As to `CNc1oc(-c2ccc(S(=O)(=O)N(C)C)o2)nc1C#N`, the cytotoxicity at 70.5 h was determined as 22.7%.
Under `O=C(CC1CCCC1)Nc1ccc(-n2cc(Br)cn2)nc1` stands -2.32%; under `CC(=O)Nc1ccc(Oc2ccc3c(c2)OCO3)nc1`, -12.3%; under `CC(C)C(=O)Nc1ccc(Oc2ccc3c(c2)OCO3)nc1`, -10.1%.
In the case of `O=C(COc1coc(CN2CCOCC2)cc1=O)Nc1ccc(Cl)cc1` it was -17.6%; in that of `COCCn1ccc2c(NC(=O)C(C)C)cccc21`, -1.52%; in that of `COc1cccc2c1ccn2CCNC(=O)C1CCC1`, -13.3%.
In the case of `Cc1ccnc(NC(=O)C2(n3cnnn3)CCCCC2)c1` it was -23.1%.
Take `O=C(NCC(=O)N1CCc2ccccc2C1)c1cnccn1`: the cytotoxicity at 70.5 h is -6.74%.
On to `O=c1cc2c(nn1CN1CCC(c3ccccc3)CC1)CCC2`, for which the cytotoxicity at 70.5 h is -17.6%.
In the case of `CC(C)NC(=O)[C@H](C)NC(=O)N1CCN(c2ccc(Cl)cc2)CC1` it was -15.6%; in that of `O=c1cc2c(nn1CN1CCSCC1)CCC2`, -19.6%.
In the case of `COc1ccc2nnc(CCCC(=O)NCc3ccccc3OC)n2n1` it was -15.5%; in that of `COc1ccc2c(c1)c(C(=O)Nc1nnn[nH]1)cn2C`, -13.5%.
Under `O=C(NCCc1ccccn1)C1(n2cnnn2)CCCCC1` stands 14.5%.
With `COc1ccc(-n2ncc3c2NC(=O)CSC3CC(C)C)cc1` (stereo not drawn), the cytotoxicity at 70.5 h is -19.5%.
Under `Cc1cc(C(=O)N2C[C@@H]3CN(S(C)(=O)=O)CCO[C@@H]3C2)c(C)o1` stands 19.5%; under `CN(C)C(=O)N[C@@H]1CN(S(C)(=O)=O)[C@@H]2CCCO[C@@H]21`, 47.9%.
With `Cc1nc(C(=O)N2C[C@@H]3CN(S(C)(=O)=O)CCO[C@@H]3C2)cs1`, the cytotoxicity at 70.5 h is -1.34%.
Consider `Cc1noc(C)c1CN1CC2(CCCCN2c2cncnc2)CC1=O` (stereo not drawn), for which the cytotoxicity at 70.5 h is -3.04%.
Under `Cc1ccc(C(=O)N2C[C@@H]3CN(S(C)(=O)=O)CCO[C@@H]3C2)s1` stands 0.775%.
Consider `Cc1nc(-c2ccc(F)cc2)nc2c1CCN(C(=O)CN(C)C)CC2`, for which the cytotoxicity at 70.5 h is -1.65%.
Under `COc1ccc(CC(=O)N2CC[C@@H]3NC(=O)CC[C@@H]32)cc1` stands 3.62%; under `COc1cccc(CC(=O)N2CC[C@H]3[C@@H]2CCC(=O)N3C)c1`, 4.41%; under `Cc1ccsc1CNC(=O)N(C)Cc1cnn(C)c1`, -12.7%.
Regarding `CCN(CC)Cc1ccc(C(=O)N2CCCC2Cn2cccn2)o1` (stereo not drawn), the cytotoxicity at 70.5 h was -1.33%.
In the case of `O=C(CN1CCOC(CNc2cccnn2)C1)NCc1cccs1` (stereo not drawn) it was -0.0167%.
In the case of `CN(Cc1cnn(C)c1)C(=O)NCCc1ccc2c(c1)OCCO2` it was -2.65%; in that of `Cn1c(CN2CCCC(Cn3cncn3)C2)nc2ccccc21` (stereo not drawn), 28.9%; in that of `c1ccc2nc(CN3CCCC3c3noc(C4CC4)n3)ccc2c1` (stereo not drawn), 21.2%.
In the case of `Cc1nc(C2CCCN2C(=O)c2ccc(N(C)C)nn2)no1` (stereo not drawn) it was 25.8%; in that of `CSc1ccc(CNC(c2ccc(F)cc2)c2nccn2C)cc1` (stereo not drawn), 0.212%; in that of `COc1cc(CNC(c2ccccc2)c2nccn2C)cc(OC)c1` (stereo not drawn), 0.143%.
Turning to `CCCOc1ncccc1CNc1nnc(C)c(C)c1C#N`, the cytotoxicity at 70.5 h stood at 21.8%.
Under `CC1CN(CC(=O)NCc2ccccn2)CCN1Cc1nccn1C` (stereo not drawn) stands -3.22%.
For `CCc1nnc2n1CCN(Cc1cc(Cl)c3c(c1)OCCO3)C2`, the cytotoxicity at 70.5 h worked out at 21.4%.
In the case of `CC1CN(CC(=O)Nc2nccs2)CCN1Cc1nccn1C` (stereo not drawn) it was -6.31%; in that of `C=C(C)CN1CCN(Cc2nccn2C)C(C)C1` (stereo not drawn), 30.2%; in that of `CC1CN(CC(=O)NC(C2CC2)C2CC2)CCN1Cc1nccn1C` (stereo not drawn), -3.28%.
Under `Cc1nnc2n1CCN(Cc1ccc3c(c1)OCCO3)C2` stands -2.45%; under `CC1CN(CC(=O)NCc2ccccc2)CCN1Cc1nccn1C` (stereo not drawn), 0.503%; under `O=c1[nH]c(CN2CCCC(Cn3cncn3)C2)nc2ccccc12` (stereo not drawn), -4.42%.
Turning to `CC(C)n1c(=O)c2ccccc2n(CCN(C)C)c1=O`, the cytotoxicity at 70.5 h is -8.7%.
As for `Cc1nc(N2CCCC2)nc2c1CCN(C(=O)CN(C)C)CC2`, the cytotoxicity at 70.5 h was -3.18%.
In the case of `CN(C)C(=O)N[C@@H]1CN(C2CCOCC2)[C@@H]2CCCO[C@@H]21` it was -2.52%; in that of `O=C(NC1CCC1)[C@H]1C[C@@H]2[C@@H](C1)OCCN2CC1CC1`, 0.808%; in that of `O=C(c1ccoc1)N1CCC2(CCC(=O)N2Cc2ccncc2)CC1`, 5.56%.
Under `CN(C)C(=O)CO[C@@H]1CC[C@H]2[C@H]1OCCN2c1ncccn1` stands 4.77%; under `Cc1ccc(C(=O)N2C[C@@H]3CCCO[C@@H]3[C@H](N3CCOCC3)C2)cn1`, 2.11%.
